Patent publication US9029389B2 (Institut Pasteur Korea, priority 2011, dated 2015)

Assays:
Human 5-lipoxygenase = molecular target: T1, Human 5-lipoxygenase (Homo sapiens, UniProt P09917); assay: Activity of compounds against 5-LO enzyme (LTB4 measurement and/or fluorescence method); format: biochemical; settings: for inhibition at 10 µM: 5-LO, single concentration of 10 uM in duplicate; for IC50: 6 or 11 point dose response in duplicate
T1 construct: purchased Cayman 60402; host or cells: insect cells
T1 sequence (P09917 1-674): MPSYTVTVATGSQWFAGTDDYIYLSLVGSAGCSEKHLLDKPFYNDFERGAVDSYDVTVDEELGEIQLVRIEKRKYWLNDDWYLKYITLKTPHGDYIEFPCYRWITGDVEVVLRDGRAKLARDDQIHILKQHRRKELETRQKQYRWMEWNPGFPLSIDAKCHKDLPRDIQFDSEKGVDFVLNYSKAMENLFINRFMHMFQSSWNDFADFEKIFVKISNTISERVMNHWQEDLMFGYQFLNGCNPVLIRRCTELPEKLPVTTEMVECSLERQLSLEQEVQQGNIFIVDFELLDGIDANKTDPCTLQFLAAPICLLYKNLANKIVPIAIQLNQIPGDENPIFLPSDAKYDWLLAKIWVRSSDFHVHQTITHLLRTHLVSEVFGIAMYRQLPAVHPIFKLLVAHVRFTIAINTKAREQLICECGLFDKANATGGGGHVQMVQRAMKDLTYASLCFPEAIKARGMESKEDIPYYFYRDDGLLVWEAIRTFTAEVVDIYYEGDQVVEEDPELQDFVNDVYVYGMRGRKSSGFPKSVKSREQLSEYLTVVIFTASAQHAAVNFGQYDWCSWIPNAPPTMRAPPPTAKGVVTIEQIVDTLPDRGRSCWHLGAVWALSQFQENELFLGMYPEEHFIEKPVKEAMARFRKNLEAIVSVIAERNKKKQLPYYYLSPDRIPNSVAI
Outline: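 Insect-cell human 5-LO preincubated 15 min at RT with compound (pH 7.4, 2 mM CaCl2, 0.1 mM ATP, 1% DMSO), then 3 uM arachidonic acid for 5 min at 37 °C; LTB4 quantified by EIA and/or LC/MS/MS. Alternatively, fluorescence of 5-HpETE via H2DCFDA, 100 uM ATP, 3 uM arachidonic acid, 5 min, RT; single 10 uM screen then 6- or 11-point IC50.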

Compound	melting point	inhibition at 10 µM (Human 5-lipoxygenase) [%]	IC50 (Human 5-lipoxygenase) [µM]
CCc1nc2ccc(Cl)cn2c1C(=O)NCc1ccc(N2CCC(F)(F)CC2)cc1 [compound 235, 6-chloro-N-(4-(4,4-difluoropiperidin-1-yl)benzyl)-2-ethylimidazo[1,2-a]pyridine-3-carboxamide]	194.2 °C	< 40	–
CCc1nc2ccc(Br)cn2c1C(=O)NCc1ccc(N2CCN(c3ccc(F)cc3)CC2)cc1 [compound 229, 6-Bromo-2-ethyl-N-(4-(4-(4-fluorophenyl)piperazin-1-yl)benzyl)imidazo[1,2-a]pyridine-3-carboxamide]	218.1 °C	< 40	–
CCc1nc2cc(Br)ccn2c1C(=O)NCc1ccc(N2CCOCC2)cc1 [compound 253, 7-Bromo-2-ethyl-N-(4-morpholinobenzyl)imidazo[1,2-a]pyridine-3-carboxamide]	202.6 °C	< 40	–
Cc1nc2cccc(C)n2c1CNc1ccc(N2CCC(c3ccc(F)cc3)CC2)cc1 [compound 401, N-((2,5-dimethylimidazo[1,2-a]pyridin-3-yl)methyl)-4-(4-(4-fluorophenyl)piperidin-1-yl)aniline]	228.8 °C	–	< 1
CCc1nc2cc(Cl)ccn2c1C(=O)NCc1ccc(C2CCOCC2)cc1 [compound 364, 7-chloro-2-ethyl-N-(4-(tetrahydro-2H-pyran-4-yl)benzyl)imidazo[1,2-a]pyridine-3-carboxamide]	> 156.6 °C (dec.)	< 40	–
CCc1nc2c(F)cccn2c1C(=O)NCc1ccc(N2CCN(c3ccc(F)cc3)CC2)cc1 [compound 223, 2-Ethyl-8-fluoro-N-(4-(4-(4-fluorophenyl)piperazin-1-yl)benzyl)imidazo[1,2-a]pyridine-3-carboxamide]	204.1 °C	> 69	1 to 20
CCc1nc2ccc(Cl)cn2c1CNc1ccc(Oc2ccc(F)cc2)cc1 [compound 379, N-((6-Chloro-2-ethylimidazo[1,2-a]pyridin-3-yl)methyl)-4-(4-fluorophenoxy)aniline]	148.6 to 148.8 °C	–	1 to 20
CCc1nc2ccccn2c1C(=O)NCc1ccc(N2CCC(COc3ccc(F)cc3)CC2)cc1 [compound 243, 2-Ethyl-N-(4-(4-((4-fluorophenoxy)methyl)piperidin-1-yl)benzyl)imidazo[1,2-a]pyridine-3-carboxamide]	144.2 °C	> 69	< 1
CCc1nc2cc(Cl)ccn2c1C(=O)NCc1ccc(N2CCN(Cc3ccc(F)cc3)CC2)cc1 [compound 126, 7-Chloro-2-ethyl-N-(4-(4-(4-fluorobenzyl)piperazin-1-yl)benzyl)imidazo[1,2-a]pyridine-3-carboxamide]	141 to 142 °C	> 69	1 to 20
Cc1nc2cccc(C)n2c1CNc1ccc(N2CCN(c3ccc(F)cc3)CC2)cc1 [compound 402, N-((2,5-dimethylimidazo[1,2-a]pyridin-3-yl)methyl)-4-(4-(4-fluorophenyl)piperazin-1-yl)aniline]	196.4 °C	–	< 1
CCc1nc2ccc(Cl)cn2c1C(=O)NCc1nc2ccc(Cl)cc2o1 [compound 369, 6-chloro-N-((6-chlorobenzo[d]oxazol-2-yl)methyl)-2-ethylimidazo[1,2-a]pyridine-3-carboxamide]	201.1 to 201.8 °C	< 40	–

Other lines, results leading:

melting point	inhibition at 10 µM (Human 5-lipoxygenase) [%]	IC50 (Human 5-lipoxygenase) [µM]	Compound
135.5 to 136.4 °C	< 40	–	CCc1nc2ccc(Cl)cn2c1C(=O)NCc1cccc(N2CCC(c3ccc(OC(F)(F)F)cc3)CC2)c1 [compound 354, 6-chloro-2-ethyl-N-(3-(4-(4-(trifluoromethoxy)phenyl)piperidin-1-yl)benzyl)imidazo[1,2-a]pyridine-3-carboxamide]
176 to 177 °C	< 40	–	CCc1nc2ccc(Cl)cn2c1C(=O)NCc1ccc(N2CC(C)OC(C)C2)cc1 (stereo not drawn) [compound 182, 6-Chloro-N-(4-(2,6-dimethylmorpholino)benzyl)-2-ethylimidazo[1,2-a]pyridine-3-carboxamide]
121.3 °C	> 69	1 to 20	CCC1=C(C(=O)NCc2ccc(N3CCC(C)(C)CC3)cc2)N2C=CC(Cl)=CC2N1 (stereo not drawn) [compound 211, 7-Chloro-N-(4-(4,4-dimethylpiperidin-1-yl)benzyl)-2-ethyl-1,8a-dihydroimidazo[1,2-a]pyridine-3-carboxamide]
197.9 °C	40 to 69	–	CCc1nc2ccc(Cl)cn2c1C(=O)NCc1ccc(N2CCC(C(F)(F)F)CC2)cc1 [compound 233, 6-Chloro-2-ethyl-N-(4-(4-(trifluoromethyl)piperidin-1-yl)benzyl)imidazo[1,2-a]pyridine-3-carboxamide]
158 to 159 °C	40 to 69	–	CCc1nc2ccc(Cl)cn2c1C(=O)NCCc1ccc(Cl)cc1 [compound 137, 6-Chloro-N-(4-chlorophenethyl)-2-ethylimidazo[1,2-a]pyridine-3-carboxamide]
223 to 224 °C	< 40	–	CCc1nc2ccc(Cl)cn2c1C(=O)NCc1ccc(C#N)cc1 [compound 134, 6-Chloro-N-(4-cyanobenzyl)-2-ethylimidazo[1,2-a]pyridine-3-carboxamide]
152.9 °C	< 40	–	CCc1nc2ccc(Br)cn2c1C(=O)NCc1ccc(Oc2ccc(OC(F)(F)F)cc2)cc1 [compound 226, 6-Bromo-2-ethyl-N-(4-(4-(trifluoromethoxy)phenoxy)benzyl)imidazo[1,2-a]pyridine-3-carboxamide]
> 133.7 °C (dec.)	< 40	–	CCc1nc2ccccn2c1C(=O)NCc1ccc(C2CCOCC2)cc1 [compound 362, 2-ethyl-N-(4-(tetrahydro-2H-pyran-4-yl)benzyl)imidazo[1,2-a]pyridine-3-carboxamide]
138.2 °C	40 to 69	–	CCc1nc2ccc(Cl)cn2c1C(=O)NCc1ccc(N2CCC(c3ccccc3)CC2)cc1 [compound 210, 6-Chloro-2-ethyl-N-(4-(4-phenylpiperidin-1-yl)benzyl)imidazo[1,2-a]pyridine-3-carboxamide]
105.6 °C	> 69	< 1	CCc1nc2c(F)cccn2c1C(=O)NCc1ccc(Oc2ccc(OC(F)(F)F)cc2)cc1 [compound 224, 2-Ethyl-8-fluoro-N-(4-(4-(trifluoromethoxy)phenoxy)benzyl)imidazo[1,2-a]pyridine-3-carboxamide]
171 °C	40 to 69	–	CCc1nc2ccc(Cl)cn2c1C(=O)NCc1ccc(N2CCC(COc3ccc(F)cc3)CC2)cc1 [compound 244, 6-Chloro-2-ethyl-N-(4-(4-((4-fluorophenoxy)methyl)piperidin-1-yl)benzyl)imidazo[1,2-a]pyridine-3-carboxamide]
176.7 °C	< 40	–	CCNC(=O)c1c(CC)nc2ccc(Cl)cn12 [compound 238, 6-Chloro-N,2-diethylimidazo[1,2-a]pyridine-3-carboxamide]
